Here are results for 45 molecules from patent US20040127492A1 (Pharmacia Corporation, priority 2002, published 2004).

Read-outs that look alike come from different tables or passages of the source.

For assay [1], the target named is MAPKAPK2 (MK-2) (Homo sapiens, UniProt P49137). Put plainly: Determination of MK-2 IC50 (HSP-peptide phosphorylation, anion exchange resin capture assay). Format: biochemical. In a few lines:
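Radiometric peptide assay: 15 nM p38α-activated MK-2, HSP-peptide, 0.03 mM ATP with [γ33P]ATP, 2% DMSO, pH 7.5, 30° C for 30 min; unreacted ATP removed on AG 1×8 resin before counting. Six concentrations in ten-fold steps, each in triplicate, gave IC50 in μM.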

The target in assay [2] is MK-3 (Homo sapiens, UniProt Q16644). In words: MK-3 inhibition IC50 (similar method to MK-2, with appropriate modifications). Format: biochemical. The protocol:
In practice, the selectivity of a cyclic pyrazole MK-2 inhibitor varies depending upon the condition under which the test is performed and on the inhibitors being tested. However, for the purposes of this specification, the selectivity of a cyclic pyrazole MK-2 inhibitor inhibitor can be measured as a ratio of the in vitro or in vivo IC50 value for inhibition of MK-3, divided by the IC50 value for inhibition of MK-2 (IC50 MK-3/IC50 MK-2). […] The MK-2 or MK-3 inhibiting activity of any of the compounds described herein can be determined by any one of several methods that are well known to those having skill in the art of enzyme activity testing. […] A similar method, with appropriate modifications, Can be used to measure MK-3 inhibitory activity. In addition, the efficacy of one of the present MK-2 inhibiting compounds in therapeutic applications can be determined by testing for inhibition of TNFα production in cell culture and in animal model assays.

Where [3] appears, read: Table 1, phenoxypyrazole MK-2 inhibitors, read-out: MK-2 Avg, IC50.
Where [4] appears, read: Table 1, phenoxypyrazole MK-2 inhibitors, read-out: MK-3 Avg. IC50.
The mark [5] stands for this setting: Table 5, other cyclic pyrazole MK-2 inhibiting compounds, read-out: MK-2 Avg. IC50.
Setting [6] is: Table 5, other cyclic pyrazole MK-2 inhibiting compounds, read-out: MK-3 Avg. IC50.
The mark [7] stands for this setting: Table 2, pyrazolylpyrazole MK-2 inhibitors, read-out: MK-2 Avg. IC50.
Setting [8] is: Table 2, pyrazolylpyrazole MK-2 inhibitors, read-out: MK-3 Avg. IC50.
[9] abbreviates: Table 4, pyrimidylpyrazole MK-2 inhibitors, read-out: MK-2 Avg. IC50.
[10] abbreviates: Table 4, pyrimidylpyrazole MK-2 inhibitors, read-out: NK-3 Avg. IC50.

Chain of MAPKAPK2 (MK-2) (P49137 whole entry, species assumed): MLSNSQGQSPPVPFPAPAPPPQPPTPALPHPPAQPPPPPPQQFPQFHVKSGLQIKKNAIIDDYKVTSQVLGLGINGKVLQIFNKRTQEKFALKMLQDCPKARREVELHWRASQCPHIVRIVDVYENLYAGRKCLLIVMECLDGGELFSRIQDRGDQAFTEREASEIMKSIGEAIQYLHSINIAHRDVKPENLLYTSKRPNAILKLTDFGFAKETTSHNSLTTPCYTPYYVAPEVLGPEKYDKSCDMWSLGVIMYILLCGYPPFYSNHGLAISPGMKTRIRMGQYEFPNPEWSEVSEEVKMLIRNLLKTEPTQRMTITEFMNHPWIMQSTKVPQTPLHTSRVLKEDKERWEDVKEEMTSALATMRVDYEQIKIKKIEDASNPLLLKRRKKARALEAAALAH
Chain of MK-3 (Q16644 whole entry, species assumed): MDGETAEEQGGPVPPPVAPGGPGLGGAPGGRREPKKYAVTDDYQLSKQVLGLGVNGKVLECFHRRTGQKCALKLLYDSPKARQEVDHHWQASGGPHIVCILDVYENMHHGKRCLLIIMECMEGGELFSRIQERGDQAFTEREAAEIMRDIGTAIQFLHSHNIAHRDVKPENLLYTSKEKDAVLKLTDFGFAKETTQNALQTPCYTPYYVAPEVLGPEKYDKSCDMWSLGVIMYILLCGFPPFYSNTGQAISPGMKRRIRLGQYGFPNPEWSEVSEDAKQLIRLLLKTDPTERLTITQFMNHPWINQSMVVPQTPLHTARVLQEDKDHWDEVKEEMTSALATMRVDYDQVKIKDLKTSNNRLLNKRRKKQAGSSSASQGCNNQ

Turning to `O=C1NCCn2nc3c(c21)CCc1cnc(-c2cccc4cccnc24)cc1-3` [Example 171], the IC50 (as a rule, the point on the concentration scale where inhibition reaches its midpoint) worked out at 14 µM in assay [1] (read-out: MK-2 Avg. IC50) and 74.8 µM in assay [2] (read-out: MK-3 Avg. IC50).
As for `COc1ccc2c(c1)CCc1c(C(=O)O)nn(-c3ccc(S(C)(=O)=O)cc3)c1-2` [Example 165], the IC50 in assay [1] (setting [3]) and in assay [2] (setting [4]) was above 200 µM throughout.
Turning to `O=C1NCCn2nc3c(c21)CCc1cnc(/C=C/c2cccc(Cl)c2)cc1-3` [Example 10], the results for the IC50 in assay [1] (setting [5]) and in assay [2] (setting [6]) were 2.92 µM and above 20 µM, respectively.
With `O=C1NCC(CCCNCCc2ccc(Cl)cc2)n2nc3c(c21)CCc1cnccc1-3` (stereo not drawn) [Example 178], the IC50 in assay [1] (read-out: MK-2 Avg. IC50) turned out to be 16.1 µM; in assay [2] (read-out: MK-3 Avg. IC50) it was 40.4 µM.
In the case of `N#CCCn1nc(C(N)=O)c2c1-c1cn[nH]c1CC2` [Example 67], the IC50 in assay [1] (setting [7]) and in assay [2] (setting [8]) was at least 200 µM in each case.
Consider `C=CCSc1n[nH]c2c1-c1nn(CCCN)c(C(=O)OCC)c1CC2` [Example 31], for which the IC50 was 114 µM in assay [1] (setting [7]) and at least 200 µM in assay [2] (setting [8]).
Consider `O=C1NCCn2nc3c(c21)CCc1cnc(/C=C/c2ccccc2F)cc1-3` [Example 11], for which the IC50 in assay [1] (setting [5]) was 4.46 µM; in assay [2] (setting [6]) it was above 200 µM.
In the case of `O=C1NCCn2nc3c(c21)CCc1cnc(N2CCSCC2)cc1-3` [Example 203], the IC50 was determined as 35.6 µM in assay [1] (read-out: MK-2 Avg. IC50) and 3.3 µM in assay [2] (read-out: MK-3 Avg. IC50).
Regarding `O=C1NCCn2nc3c(c21)CCc1cnc(/C=C/c2ccc(F)cc2)cc1-3` [Example 8], the IC50 is 0.749 µM in assay [1] (setting [5]) and above 20 µM in assay [2] (setting [6]).
As for `O=C(O)c1c2c(nn1CCCNCCc1ccc(-c3ccncc3)cc1)-c1ccncc1CC2` [Example 37], the IC50 in assay [1] (read-out: MK-2 Avg. IC50) amounted to 0.211 µM; in assay [2] (read-out: MK-3 Avg. IC50), 7.71 µM.
For the molecule `NC(=O)c1[nH]nc2c1CCc1c-2cnn1CCO` [Example 70], the IC50 in assay [1] (setting [7]) and in assay [2] (setting [8]) was at least 200 µM in each case.
As for `O=C1NCCn2nc3c(c21)CCc1cnc(N2CCC(O)CC2)cc1-3` [Example 159], the IC50 in assay [1] (read-out: MK-2 Avg. IC50) is 9.84 µM; in assay [2] (read-out: MK-3 Avg. IC50) it was 22.8 µM.
For `O=C(O)c1c2c(nn1CCCNCCc1ccc(Cl)cc1)-c1ccncc1CC2` [Example 56], the values for the IC50 in assay [1] (read-out: MK-2 Avg. IC50) and in assay [2] (read-out: MK-3 Avg. IC50) were 0.551 µM and 7.86 µM, respectively.
With `COC(=O)c1nn(-c2ccc(OC)cc2)c2c1CCc1cc(OC)ccc1-2` [Example 163], the IC50 in assay [1] (setting [3]) and in assay [2] (setting [4]) was above 200 µM in each case.
Consider `CS(=O)(=O)c1ccc(-n2nc(C(N)=O)c3c2-c2cn[nH]c2CC3)cc1` [Example 35], for which the values for the IC50 in assay [1] (setting [7]) and in assay [2] (setting [8]) were 124 µM and at least 200 µM, respectively.
Regarding `O=C(O)c1c2c(nn1CCCNCCCc1ccc(Br)cc1)-c1ccncc1CC2` [Example 38], the IC50 in assay [1] (read-out: MK-2 Avg. IC50) amounted to 0.22 µM; in assay [2] (read-out: MK-3 Avg. IC50), 10.3 µM.
`O=C(O)c1c2c(nn1CCO)-c1cn[nH]c1CC2` [Example 37]: the IC50 in assay [1] (setting [7]) is 139 µM; in assay [2] (setting [8]), at least 200 µM.
As for `CCOC(=O)c1c2c(nn1CCCNCCc1ccsc1)-c1cn[nH]c1CC2` [Example 36], the IC50 in assay [1] (setting [7]) is 133 µM; in assay [2] (setting [8]), at least 200 µM.
Take `CC(C)(C)c1ccc(-c2ccc(CCNCCCn3nc4c(c3C(=O)O)CCc3cnccc3-4)cc2)cc1` [Example 33]: the values for the IC50 in assay [1] (read-out: MK-2 Avg. IC50) and in assay [2] (read-out: MK-3 Avg. IC50) were 0.201 µM and 7.22 µM, respectively.
For the molecule `CC(C)(C)OC(=O)NCCCn1nc2c(c1C(N)=O)CCc1[nH]ncc1-2` [Example 66], the IC50 in assay [1] (setting [7]) and in assay [2] (setting [8]) was at least 200 µM throughout.
`O=C(O)c1[nH]nc2c1CCc1cc(O)c(O)cc1-2` [Example 28]: the results for the IC50 in assay [1] (setting [3]) and in assay [2] (setting [4]) were 28.3 µM and above 200 µM, respectively.
As to `O=C(O)c1ccc(-c2ccc(CCNCCCn3nc4c(c3C(=O)O)CCc3cnccc3-4)cc2)cc1` [Example 18], the results for the IC50 in assay [1] (read-out: MK-2 Avg. IC50) and in assay [2] (read-out: MK-3 Avg. IC50) were 0.0796 µM and 2.18 µM, respectively.
Consider `O=C(O)c1c2c(nn1CCCNCCc1ccc(-c3ccccc3)cc1)-c1ccncc1CC2` [Example 44], for which the IC50 in assay [1] (read-out: MK-2 Avg. IC50) was 0.316 µM; in assay [2] (read-out: MK-3 Avg. IC50), 5.01 µM.
For `CN(C)c1ccc(-c2cc3c(cn2)CCc2c-3nn3c2C(=O)NCC3)cc1` [Example 42], in that order: 0.272 µM and 36 µM.
As to `NCCCn1nc2c(c1C(=O)O)CCc1cnc(-c3ccc(C(F)(F)F)cc3)cc1-2` [Example 15], the IC50 was found to be 0.0567 µM in assay [1] (read-out: MK-2 Avg. IC50) and 0.209 µM in assay [2] (read-out: MK-3 Avg. IC50).
For the molecule `NCCn1nc2c(c1C(=O)O)CCc1cc(O)c(Br)cc1-2` [Example 5], the IC50 is 2.14 µM in assay [1] (setting [3]) and above 200 µM in assay [2] (setting [4]).
As to `O=C(O)c1c2c(nn1CCCNCCC(c1ccccc1)c1ccccc1)-c1ccncc1CC2` [Example 80], the IC50 in assay [1] (read-out: MK-2 Avg. IC50) came out at 1.18 µM; in assay [2] (read-out: MK-3 Avg. IC50) it was 30.3 µM.
For the molecule `O=C(O)c1nn(CC(F)(F)F)c2c1CCc1c-2cnn1C(c1ccccc1)(c1ccccc1)c1ccccc1` [Example 22], the IC50 in assay [1] (setting [7]) was 68.3 µM; in assay [2] (setting [8]) it was 195 µM.
As to `O=C(O)c1c2c(nn1CCCNC(c1ccccc1)(c1ccccc1)c1ccccc1)-c1nc(-c3cnc4ccccc4c3)ncc1CC2` [Example 6], the IC50 in assay [1] (setting [9]) was determined as 2.16 µM; in assay [2] (setting [10]), 154 µM.
As for `NCC1Cn2nc3c(c2C(=O)N1)CCc1cnccc1-3` (stereo not drawn) [Example 49], the concentration for half-maximal inhibition (IC50) in assay [1] (read-out: MK-2 Avg. IC50) is 0.427 µM; in assay [2] (read-out: MK-3 Avg. IC50), 45.8 µM.
On to `COc1ccc(/C=C/c2cc3c(cn2)CCc2c-3nn3c2C(=O)NCC3)cc1` [Example 12], for which the half-maximal inhibitory concentration (IC50) was 4.76 µM in assay [1] (setting [5]) and above 200 µM in assay [2] (setting [6]).
Consider `Cn1nc(C(=O)O)c2c1-c1ccc(O)cc1CC2` [Example 39], for which the results for the IC50 in assay [1] (setting [3]) and in assay [2] (setting [4]) were 56.2 µM and above 200 µM, respectively.
Take `O=C(O)c1c2c(nn1CCCNCCc1ccc([N+](=O)[O-])cc1)-c1ccncc1CC2` [Example 69]: the IC50 was determined as 0.765 µM in assay [1] (read-out: MK-2 Avg. IC50) and 11.9 µM in assay [2] (read-out: MK-3 Avg. IC50).
On to `Cn1nc(C(N)=O)c2c1-c1ccc(O)cc1CC2` [Example 65], for which the IC50 is 158 µM in assay [1] (setting [3]) and above 200 µM in assay [2] (setting [4]).
For the molecule `COc1cc2c(cc1OC)-c1n[nH]c(C(=O)NN)c1CC2` [Example 170], the IC50 in assay [1] (setting [3]) and in assay [2] (setting [4]) was above 200 µM in each case.
Regarding `NC(=O)c1[nH]nc2c1CCc1cc(O)ccc1-2` [Example 33], the IC50 in assay [1] (setting [3]) is 39.2 µM; in assay [2] (setting [4]) it was 107 µM.
With `NCCCn1nc2c(c1C(=O)O)CCc1cnc(-c3ccccc3)nc1-2` [Example 3], the IC50 in assay [1] (setting [9]) came out at 0.406 µM; in assay [2] (setting [10]), 10.8 µM.
Turning to `NCCCn1nc2c(c1C(=O)O)CCc1cnc(-c3ccc4ccccc4c3)cc1-2` [Example 5], the IC50 in assay [1] (read-out: MK-2 Avg. IC50) amounted to 0.023 µM; in assay [2] (read-out: MK-3 Avg. IC50) it was 0.0698 µM.
Take `C=CCSc1n[nH]c2c1-c1nn3c(c1CC2)C(=O)NCCC3` [Example 12]: the figures for the IC50 in assay [1] (setting [7]) and in assay [2] (setting [8]) were 10.8 µM and 55.6 µM, respectively.
With `O=C1NCCn2nc3c(c21)CCc1cnc(/C=C/c2ccc(F)c(F)c2)cc1-3` [Example 7], the IC50 in assay [1] (setting [5]) was 0.623 µM; in assay [2] (setting [6]), above 20 µM.
Take `CCOC(=O)c1[nH]nc2c1CCc1c-2cnn1-c1ccccc1` [Example 47]: the IC50 in assay [1] (setting [7]) and in assay [2] (setting [8]) was at least 200 µM in each case.
Consider `CC(C)(C)c1ccc(CCCNCCCn2nc3c(c2C(=O)O)CCc2cnccc2-3)cc1` [Example 39], for which the IC50 came to 0.234 µM in assay [1] (read-out: MK-2 Avg. IC50) and 11.6 µM in assay [2] (read-out: MK-3 Avg. IC50).
Take `CS(=O)(=O)c1cccc(-c2cc3c(cn2)CCc2c-3nn(CCCN)c2C(=O)O)c1` [Example 11]: the IC50 in assay [1] (read-out: MK-2 Avg. IC50) was found to be 0.0391 µM; in assay [2] (read-out: MK-3 Avg. IC50), 0.453 µM.
As to `C=CCC1Cc2c(C(=O)O)n[nH]c2-c2ccc(O)cc21` (stereo not drawn) [Example 60], the results for the IC50 in assay [1] (setting [3]) and in assay [2] (setting [4]) were 148 µM and above 200 µM, respectively.
Regarding `CCOCn1ncc2c1CCc1c-2n[nH]c1C(N)=O` [Example 46], the IC50 in assay [1] (setting [7]) is at least 200 µM; in assay [2] (setting [8]), 145 µM.
